Literature values as cited in patent US6288033A, “Treatment of hepatitis B infection with thymosin alpha 1 in combination with lamivudine or in combination with lamivudine and famciclovir” (priority 1998, dated 2001).
Read-outs that look alike come from different tables or passages of the source. No end group written: not given here.

Columns and labels:
[1] = test system: HBV
[2] = not given; remark: listed apart in the source
[3] = test system: duck hepatitis B viral replication; conditions: for HBV DNA and DNA polymerase levels: within two days of start, maintained during 21 days; for time viral replication remained suppressed after dosing had stopped: then levels returned to pre-treatment
[4] = test system: HBV; conditions: 10 day course, 250 mg or 500 mg tid
[5] = up to 2 years, HIV-infected patients
[6] = test system: HBV; conditions: duck model
[7] = test system: HBV; conditions: chronically infected chimpanzees
[8] = test system: HBV transfected cell lines
[9] = test system: hepatitis B virus (HBV)
[10] = test system: anti-HBs; conditions: previously non-reactive hemodialysis patients, after Heptavax-B vaccination
[11] = test system: HBV; remark: listed apart in the source
[12] = test system: HBV; remark: listed apart in the source
[13] = test system: woodchuck hepatitis virus (WHV)
[14] = test system: HBV; conditions: 1 microgram/ml
[15] = North America and European patients

## CC(=O)OCC(CCn1cnc2cnc(N)nc21)COC(C)=O [famciclovir, diacetyl ester of 6-deoxypenciclovir]
11 double-blind and 2 open trials, more than 3000 patients
  frequency of adverse experiences and laboratory abnormalities versus placebo: similar
human, in vivo
  most common adverse experiences: headache, nausea and diarrhea
[1]; adverse events profile similar to placebo
  tolerability: well tolerated
[1]; up to 500 mg three times a day for 16 weeks, preliminary data
  HBV DNA and ALT levels: significant reduction
[2]; after a 500 mg oral famciclovir dose
  penciclovir concentration in the blood, Cmax: 21.73 microgram/ml
[2]; single and repeat doses up to 1000 mg three times daily for six days
  drug-related adverse effects on clinical laboratory values, blood pressure, heart rates or ECG: no evidence of drug-related adverse effects
[2]; volunteers, oral
  absorption: well absorbed
[3]; oral 5 and 25 mg/kg twice a day
  HBV DNA and DNA polymerase levels: undetectable levels
[3]
  time viral replication remained suppressed after dosing had stopped: at least two days
[4]
  evaluable patients with a greater than 90% fall in HBV DNA levels: 6 of 11

## Nc1ccn([C@@H]2CS[C@H](CO)O2)c(=O)n1 [lamivudine, 2'3'-dideoxy-3'thiacytidine]
[5]
  toxicity: without significant toxicity
[6]
  antiviral activity: has been shown
[7]
  antiviral activity: has been shown
[8]
  antiviral activity: has been shown

## interferon-alpha
[9]; Asian patients
  of the HBeAg-clearing patients, clear HBsAg: approximately 10%
  patients who clear HBeAg: 15-20%
[9]; [15]
  of the HBeAg-clearing patients, ultimately cleared HBsAg: 25-65%
  sustained clearance of hepatitis B e antigen (HBeAg), patients: 30-40%

## Thymosin alpha 1 (Ac-SDAAVDTSSEITTKDLKEKKEVVEEAEN; UniProt P06454 2-29, looked up) [Tα1]
[10]
  in vivo production of anti-HBs: enhance
[11]; 1.6 mg S.C. 2×/week, 6 months, n=49
  CR (complete response), number of patients: 7 patients
[11]; 1.6 mg S.C. 2×/week, 6 months, n=49, p 0.084
  CR (%): 14%
[11]; during the 1yr study or post study follow up
  patients with sustained loss of HBV DNA with negative HBeAg, number: 12 patients
[11]; during the 1yr study or post study follow up, p<0.11 vs placebo
  patients with sustained loss of HBV DNA with negative HBeAg: 25%
[11]; n=49
  DR (%): 10%
  DR (delayed response), number of patients: 5 patients
  IR (%): 0%
  IR (incomplete response), number of patients: 0 patients
[12]; conclusion of the study (1 year), 12 patients received TF5 or Tα1 twice weekly for six months
  serum aminotransferase levels: improved significantly
[12]; in responders to therapy
  peripheral blood lymphocyte, CD3 and CD4 counts, in vitro production of interferon-gamma over initial values: significant improvements
[12]; in vivo
  side effects: No side effects were observed
[12]; of 12 treated patients, 1 year
  patients who cleared serum HBV DNA, number: Nine
[12]; of 12 treated patients, 1 year, p<0.004 vs placebo
  patients who cleared serum HBV DNA: 75%
[12]; of the responders
  responders with sustained remission (normal ALT, negative serum HBV DNA by PCR and HBeAg): About 78%
[12]; phase II studies, 1.45 to 1.75 mg (adults) per twice-weekly injection
  safety and efficacy in clearing HBV DNA: safe and effective in clearing HBV DNA from the blood
[13]; 10 μg/Kg s.c. twice weekly, 28 weeks, 6 treated animals, end of treatment
  treated animals with undetectable WHV DNA levels: 4 animals
[13]; liver biopsy, the 4 animals with undetectable serum WHV DNA
  decrease in liver levels of WHV DNA replication intermediates: 50 to 300 fold
[13]; liver biopsy, the other 2 animals
  change in liver levels of WHV DNA replication intermediates: only a small change from the pretreatment levels
[13]; remaining 2 treated animals, end of treatment
  depression of WHV DNA levels: 100 fold

## Nc1nc2c(ncn2CCC(CO)CO)c(=O)[nH]1 [penciclovir]
[2]; after a 5 mg/kg oral dose of penciclovir alone
  penciclovir concentration in the blood, Cmax: approximately 0.14 microgram/ml
[3]; oral 20 and 100 mg/kg twice a day
  HBV DNA and DNA polymerase levels: undetectable levels
[3]
  time viral replication remained suppressed after dosing had stopped: at least two days
[14]; day 6
  reduction in HBV DNA: 50%
[14]; day 9
  reduction in HBV DNA: 90%
